From article PMC8569681, “New Pyrimidine and Pyridine Derivatives as Multitarget Cholinesterase Inhibitors: Design, Synthesis, and In Vitro and In Cellulo Evaluation” (ACS Chemical Neuroscience, 2021)
Where two headings read alike, the source gives them in different places.

Legend:
[1] = molecular target: T1, Electrophorus electricus AChE (EeAChE) (Electrophorus electricus, UniProt O42275); test: Percent inhibition of EeAChE, Ellman's spectrophotometric method; format: biochemical; conditions: for inhibition at 90 µM: read-out: % inhibition vs EeAChE ± SD (90 uM), 90 uM; for inhibition at 900 µM: read-out: % inhibition vs EeAChE ± SD (900 uM), 900 uM; for inhibition at 0.9 µM: read-out: % inhibition vs EeAChE ± SD, [I] 900 nM
T1 construct: purchased Sigma-Aldrich (Milan, Italy)
T1 sequence (O42275 24-633): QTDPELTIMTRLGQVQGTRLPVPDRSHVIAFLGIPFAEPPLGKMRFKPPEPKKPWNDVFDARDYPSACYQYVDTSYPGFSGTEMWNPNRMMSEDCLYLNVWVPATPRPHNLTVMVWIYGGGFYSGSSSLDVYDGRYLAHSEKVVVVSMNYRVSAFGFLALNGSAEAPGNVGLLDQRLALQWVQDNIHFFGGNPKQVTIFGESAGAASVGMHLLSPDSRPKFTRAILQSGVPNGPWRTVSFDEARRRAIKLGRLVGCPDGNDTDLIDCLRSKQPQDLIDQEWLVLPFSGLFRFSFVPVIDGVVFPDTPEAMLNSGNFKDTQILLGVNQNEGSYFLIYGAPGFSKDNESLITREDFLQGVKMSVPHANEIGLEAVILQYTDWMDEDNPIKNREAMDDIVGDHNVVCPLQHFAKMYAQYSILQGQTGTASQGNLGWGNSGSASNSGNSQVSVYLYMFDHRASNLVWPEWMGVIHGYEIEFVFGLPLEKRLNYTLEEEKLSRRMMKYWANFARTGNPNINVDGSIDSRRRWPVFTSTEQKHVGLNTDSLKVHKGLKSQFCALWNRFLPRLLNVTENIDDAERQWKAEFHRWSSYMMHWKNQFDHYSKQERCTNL
Experimental: (§1) All other chemical and biological reagents and solvents used were of the highest analytical, commercially available grade. The water, utilized for the preparation of the phosphate buffer and of the compound solutions, was distilled and filtered on nylon membrane filters with a 0.2 μm pore size with the Millipore Filtration apparatus before each use. Micropipettes Labmate (BRAND Dig. 10–100 μL; Dig. 100–1000 μL; Dig. 0.1–2 μL) and Transferpette (HIGH TECH LAB LM200: 20–200 μL; LM5000: 1000–5000 μL) were used to collect the samples. The assays were carried out by a double beam UV–vis Lambda 40 Perkin Elmer spectrophotometer using optical polystyrene cuvettes (10 × 10 × 45 mm, 340–800 nm optical transparency); each measure was repeated at least in triplicate. […] The spectrophotometric method of Ellman[25] with minor modifications was used to evaluate the inhibition of ChEs. […] EeAChE and eqBChE were periodically tested to evaluate the effective enzymatic activity.
(§2) For all the synthesized compounds, the percentages of inhibition toward AChE of Electrophorus electricus (EeAChE) and equine BChE (eqBChE) were evaluated.
Three milliliters of a solution in 0.1 M phosphate buffer (pH = 7.4) containing DTNB (0.25 mM) and EeAChE (0.083 UmL^–1) or eqBChE (0.083 UmL^–1) was placed in a polystyrene cuvette of 1.0 cm path length; 1 μL of a […] With this solution, the blank was made. […] Each experiment was repeated at least in triplicate.

[2] = molecular target: T2, equine BChE (eqBChE) (Equus caballus, UniProt P81908); test: Percent inhibition of eqBChE, Ellman's spectrophotometric method; format: biochemical; conditions: for % inhibition vs eqBChE ± SD (900 uM): 900 nM; for inhibition at 0.9 µM: [I] 900 nM
T2 construct: purchased Sigma-Aldrich (Milan, Italy)
T2 sequence (P81908 whole entry): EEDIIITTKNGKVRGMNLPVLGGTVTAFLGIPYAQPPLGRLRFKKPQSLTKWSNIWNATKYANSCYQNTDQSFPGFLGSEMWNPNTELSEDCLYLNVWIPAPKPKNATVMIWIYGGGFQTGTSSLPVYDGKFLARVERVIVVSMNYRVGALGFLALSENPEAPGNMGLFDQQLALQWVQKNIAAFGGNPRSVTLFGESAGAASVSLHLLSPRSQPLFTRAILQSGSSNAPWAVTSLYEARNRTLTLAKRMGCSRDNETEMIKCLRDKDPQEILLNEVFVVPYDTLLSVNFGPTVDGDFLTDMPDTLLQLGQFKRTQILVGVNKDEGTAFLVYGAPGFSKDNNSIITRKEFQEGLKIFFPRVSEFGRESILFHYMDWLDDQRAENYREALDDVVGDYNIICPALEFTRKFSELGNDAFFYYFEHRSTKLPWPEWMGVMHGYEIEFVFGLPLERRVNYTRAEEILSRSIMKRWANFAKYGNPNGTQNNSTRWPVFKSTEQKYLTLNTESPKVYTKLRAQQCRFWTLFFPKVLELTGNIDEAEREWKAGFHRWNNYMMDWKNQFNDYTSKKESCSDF
Experimental: On the synthesized compounds, enzymatic inhibition studies were carried out toward Electrophorus electricus AChE (EeAChE) and equine BChE (eqBChE) according to Ellman’s spectrophotometric method.[25]
as §1, §2
Three milliliters of a solution in 0.1 M phosphate buffer (pH = 7.4) containing DTNB (0.25 mM) and EeAChE (0.083 UmL^–1) or eqBChE (0.083 UmL^–1) was placed in a polystyrene cuvette of 1.0 cm path length; 1 μL of a solution in DMSO of the tested compound was added to obtain a cuvette concentration range of 9–0.09 μM. With this solution, the blank was made. […] Each experiment was repeated at least in triplicate.

[3] = Antioxidant activity, DPPH spectrophotometric method; conditions: DPPH, absorbance at 515 nm
Experimental: The antioxidant activity assays were carried out according to the 2,2-diphenyl-1-picrylhydrazyl (DPPH) spectrophotometric method.[34] Initially, to assess whether the compounds had antioxidant activity and to define the time required by each antioxidant to reach the steady state, the reduction in absorbance over time at 515 nm of a solution of DPPH mixed with the tested compound was recorded until reaching the plateau. […] The value of EC50 can be extrapolated by plotting the percentage of residual DPPH at the steady state as a function of the molar ratio of the antioxidant to initial DPPH.
2,2-Diphenyl-1-picrylhydrazyl (DPPH), MeOH, and ascorbic acid, used as the reference standard, were purchased from Sigma-Aldrich. Micropipettes Labmate (BRAND Dig. 10–100 μL; Dig. 100–1000 μL) and Transferpette (HIGH TECH LAB LM200: 20–200 μL; LM5000: 1000–5000 μL) were used to collect the samples. The assays were carried out by a double beam UV–vis Lambda 40 Perkin Elmer spectrophotometer using optical polystyrene cuvettes (10 × 10 × 45 mm, 340–800 nm optical transparency); each measure was repeated at least in triplicate. For data processing, UV-WIN Lab version 2.0 (Perkin Elmer Corporation) was used. The antioxidant activity of the tested compounds was evaluated by the DPPH method[34] based on the ability of antioxidant compounds to react with the stable radical DPPH, which has a maximum absorption at about 515 nm. Thus, by measuring the decrease in absorbance over time of DPPH solutions to which increasing amounts of the tested compound are added, the antioxidant activity of the compound can be determined.
[…]. To 2.90 mL of MeOH, 60 μL of a DPPH solution in MeOH (∼1.2 mM) and 40 μL of an antioxidant solution in MeOH (4.5 mM) were added to have in the cuvette concentrations of DPPH equal to about 25 μM and of antioxidant equal to 60 μM. The exact DPPH concentration was calculated through the Lambert–Beer relation, known the extinction coefficient of DPPH at 515 nm, equal to 1.25 × 10^4.[34] The absorbance was recorded until the plateau was reached.
. To obtain the initial DPPH concentration, 2.94 mL of MeOH and 60 μL of the DPPH solution in MeOH (∼1.2 mM) were placed in a polystyrene cuvette and the absorbance was recorded at 515 nm. The exact initial DPPH concentration was calculated through the Lambert–Beer relation. For subsequent measurements, the cuvettes were set up by introducing the opportune volume of MeOH to reach a total volume of 3 mL, 60 μL of the DPPH solution in MeOH (∼1.2 mM, to have a final concentration of ∼25 μM), and the appropriate volumes of the antioxidant stock solution in MeOH to have final concentrations between 1.5 and 12 μM for 20 and between 5 and 60 μM for 18 and 30; the absorbance was recorded at 515 nm at the plateau and then after 1 min for compound 20 and after 90 min for compounds 18 and 30. Each measure was repeated four times. With absorbance data, the percentages of residual DPPH at steady state were obtained using the following equation: [drawing 3] where Ac is the average of absorbance in the presence of antioxidant at plateau and A0 is the average of the initial absorbance of DPPH.
The same procedure was performed using ascorbic acid as the antioxidant at cuvette concentrations between 1.5 and 18 μM, recording the absorbance at 515 nm after 2 min from the preparation of the cuvettes.

[4] = read-out: % inhibition vs EeAChE ± SD (9 uM), 9 uM, supplement csv
[5] = read-out: % inhibition vs EeAChE ± SD, [I] 9 μM, 0.0833 U/mL enzyme, 100 μM acetylthiocholine
[6] = [I] 9 μM, 0.0833 U/mL enzyme, 100 μM acetylthiocholine, read-out: % inhibition vs eqBChE ± SD
[7] = read-out: % inhibition vs eqBChE ± SD (9 uM), 9 uM, supplement csv
[8] = 0.0833 U/mL enzyme, 100 μM acetylthiocholine, read-out: % inhibition vs eqBChE ± SD
[9] = 0.0833 U/mL enzyme, 100 μM acetylthiocholine

Structure (SMILES) | inhibition at 9 µM [1, 4] | inhibition at 9 µM [1, 5] | inhibition at 9 µM [2, 6] | inhibition at 9 µM [2, 7] | % inhibition vs eqBChE ± SD (900 uM) ([2]; supplement csv) | inhibition at 0.9 µM [2, 8] | inhibition at 90 µM ([1]; supplement csv) | inhibition at 900 µM ([1]; supplement csv) | inhibition at 0.9 µM [1, 9] | reaction time (time for reaching the plateau) [3]
Clc1ccc(CNCCCCCCNc2ncccn2)cc1 [Compound 15, N^1-(4-Chlorobenzyl)-N^6-(pyrimidin-2-yl)hexane-1,6-diamine] | 29.9 ± 1.2% | 29.9 ± 1.2% | 21.5 ± 1.2% | 21.5 ± 1.2% |  |  |  |  |  | 
Brc1ccc(CNCCCCCCNc2ncccn2)cc1 [Compound 14, N^1-(4-Bromobenzyl)-N^6-(pyrimidin-2-yl)hexane-1,6-diamine] | 23 ± 1.6% | 23 ± 1.6% | 38.6 ± 5.5% | 38.6 ± 5.5% | 6.6 ± 0.2% | 6.6 ± 0.2% |  |  |  | 
Oc1cccc(CNCCCCCCNc2ccccn2)c1 [Compound 31, 3-(((6-(Pyridin-2-ylamino)hexyl)amino)methyl)phenol] | 42.2 ± 2.2% | ~40% | 56 ± 3.8% | 19.1 ± 2.2% |  | 19.1 ± 2.2% | 56 ± 3.8% |  |  | 
Oc1cccc(CNCCCCCCNc2ccccn2)c1O [Compound 32, 3-(((6-(Pyridin-2-ylamino)hexyl)amino)methyl)benzene-1,2-diol] | 63.9 ± 2.2% | ~60% | 59.8 ± 1.5% | 11.5 ± 2.9% |  | 11.5 ± 2.9% | 59.8 ± 1.5% | 23.9 ± 1.5% | 23.9 ± 1.5% | 
COc1cc(CNCCCCCCNc2ncccn2)cc(OC)c1OC [Compound 17, N^1-(Pyrimidin-2-yl)-N^6-(3,4,5-trimethoxybenzyl)hexane-1,6-diamine] | 16.4 ± 2.8% | 16.4 ± 2.8% | 29.4 ± 4.5% | 29.4 ± 4.5% |  |  |  |  |  | 
COc1cc(CNCCCCCCNc2ccccn2)cc(OC)c1OC [Compound 29, N^1-(Pyridin-2-yl)-N^6-(3,4,5-trimethoxybenzyl)hexane-1,6-diamine] | 30.9 ± 1.1% | 24 to 30% | 68.9 ± 4.1% | 19 ± 2.5% |  | 19 ± 2.5% | 68.9 ± 4.1% |  |  | 
Clc1ccc(CNCCCCCCNc2ccccn2)cc1 [Compound 27, N^1-(4-Chlorobenzyl)-N^6-(pyridin-2-yl)hexane-1,6-diamine] | 27.7 ± 4.7% | 24 to 30% | 73.2 ± 3.6% | 17.7 ± 5.2% |  | 17.7 ± 5.2% | 73.2 ± 3.6% |  |  | 
Brc1ccc(CNCCCCCNc2ncccn2)cc1 [Compound 10, N^1-(4-Bromobenzyl)-N^5-(pyrimidin-2-yl)pentane-1,5-diamine] | 14.5 ± 0.7% | 14.5 ± 0.7% | 17.1 ± 0.9% | 17.1 ± 0.9% |  |  |  |  |  | 
Clc1cc(CNCCCCCCNc2ncccn2)cc(Cl)n1 [Compound 21, N^1-((2,6-Dichloropyridin-4-yl)methyl)-N^6-(pyrimidin-2-yl)hexane-1,6-diamine] | 18.5 ± 1.8% | 18.5 ± 1.8% | 26.8 ± 0.4% | 26.8 ± 0.4% |  |  |  |  |  | 
CC(C)(C)OC(=O)NCCCCCCNc1ncccn1 [Compound 2, tert-Butyl {6-[(Pyrimidin-2-yl)amino]hexyl}carbamate] |  |  |  |  |  |  |  |  |  | 1 min
Clc1cc(CNCCCCCCNc2ccccn2)cc(Cl)n1 [Compound 33, N^1-((2,6-Dichloropyridin-4-yl)methyl)-N^6-(pyridin-2-yl)hexane-1,6-diamine] | 40.6 ± 4.1% | ~40% | 68.3 ± 2.9% | 13 ± 0.7% |  | 13 ± 0.7% | 68.3 ± 2.9% | 6.2 ± 1.1% | 6.2 ± 1.1% | 
O=C1O[C@H]([C@@H](O)CO)C(O)=C1O [ascorbic acid, reference compound] |  |  |  |  |  |  |  |  |  | 2 min
COc1ccccc1CNCCCCCNc1ncccn1 [Compound 11, N^1-(2-Methoxybenzyl)-N^5-(pyrimidin-2-yl)pentane-1,5-diamine] | 62.2 ± 0.9% | 60 to 70% | 22.1 ± 1.3% | 22.1 ± 1.3% |  |  |  | 14.6 ± 0.6% | 14.6 ± 0.6% | 
Clc1cc(CNCCCCCNc2ncccn2)cc(Cl)n1 [Compound 12, N^1-((2,6-Dichloropyridin-4-yl)methyl)-N^5-(pyrimidin-2-yl)pentane-1,5-diamine] | 16.5 ± 2% | 16.5 ± 2% | 8.5 ± 1.3% | 8.5 ± 1.3% |  |  |  |  |  | 
Brc1ccc(CNCCCCCNc2ccccn2)cc1 [Compound 24, N^1-(4-Bromobenzyl)-N^5-(pyridin-2-yl)pentane-1,5-diamine] | 18.2 ± 3.5% | 18.2 ± 3.5% | 56.4 ± 1.6% | 12.1 ± 4.6% |  | 12.1 ± 4.6% | 56.4 ± 1.6% |  |  | 
COc1ccccc1CNCCCCCCNc1ncccn1 [Compound 16, N^1-(2-Methoxybenzyl)-N^6-(pyrimidin-2-yl)hexane-1,6-diamine] | 68.3 ± 0.7% | 60 to 70% | 43.9 ± 4.8% | 43.9 ± 4.8% | 6.2 ± 0.4% | 6.2 ± 0.4% |  | 15.7 ± 1.1% | 15.7 ± 1.1% | 
